Results on 26 molecules are retold here after patent publication US7732618B2, “Benzimidazole acetic acids exhibiting CRTH2 receptor antagonism and uses thereof” (Wyeth, priority 2004, dated 2010).

This experiment deals with T1, human CRTH2 (Homo sapiens, UniProt Q9Y5Y4).
T1 sequence (Q9Y5Y4 1-395): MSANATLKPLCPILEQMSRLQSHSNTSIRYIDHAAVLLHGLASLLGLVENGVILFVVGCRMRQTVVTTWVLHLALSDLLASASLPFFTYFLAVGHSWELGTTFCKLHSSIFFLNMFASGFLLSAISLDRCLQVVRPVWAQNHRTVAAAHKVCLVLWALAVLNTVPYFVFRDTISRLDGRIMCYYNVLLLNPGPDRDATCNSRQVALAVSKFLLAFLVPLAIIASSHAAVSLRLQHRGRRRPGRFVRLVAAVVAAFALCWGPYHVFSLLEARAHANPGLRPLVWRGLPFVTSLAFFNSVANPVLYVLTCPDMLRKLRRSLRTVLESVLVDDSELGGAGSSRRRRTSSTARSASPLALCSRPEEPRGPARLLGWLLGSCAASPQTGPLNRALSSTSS
The experiment in a line: CRTH-2 binding assay (scintillation proximity assay, inhibition of 3H-PGD2 binding). The conditions noted are these: membranes from 293EBNA-hCRTH2 cells, 3H-PGD2 3.6 nM; Ki calculated from IC50. Details: expressed in transfected cells; host or cells: 293EBNA-hCRTH2 cells (membrane preparation). Here is the method:
A CRTH2 binding assay was developed to measure the ability of compounds to inhibit the binding of PGD2 to human CRTH2 using a scintillation proximity assay.
Membranes containing hCRTH2 receptors were prepared from 293EBNA-hCRTH2 cells (a 293EBNA cell line stably expressing human CRTH2). The cells were grown to confluency, harvested and washed with PBS. The cells were resuspended in 10 mM Hepes pH 7.4, 1 mM EDTA and protease inhibitors and incubated for 30 min on ice. The cells were homogenized and centrifuged for 10 min at 1000×g. The supernate was centrifuged for 30 min at 100,000×g and the membrane pellet was then resuspended in 10 mM Hepes pH 7.4 and 1 mM EDTA. The protein concentration of the membrane preparation was determined by Bradford assay (Bio-Rad).
The ability of compounds to inhibit the interaction of PGD2 to human CRTH2 was determined at seven compound concentrations. Compounds were serially diluted in DMSO then diluted into CRTH2 buffer (10 mM Hepes pH 7.4, 1 mM EDTA, 10 mM MnCl2) to six times the final desired concentration. 20 μL of the diluted compounds were transferred into non-surface binding 96-well plates (Corning). Each concentration was done in triplicate. In addition to test compounds, each plate contained 12 control wells. Six of these wells contained 20 μL of CRTH2 buffer. These wells were used to measure total binding. Six wells contained 20 μL of CRTH2 buffer plus 1.5 mM indomethacin. These wells were used to measure non-specific binding. Next, 293EBNA-hCRTH2 membranes were resuspended in CRTH2 buffer with glycerol (10 mM Hepes pH 7.4, 1 mM EDTA, 10 mM MnCl2, 25% glycerol) so that the final concentration was approximately 20 μg/100 μL. Polylysine-coated yttrium silicate SPA beads (Amersham) were added to the membrane mix to a concentration of 0.4 mg/100 μL and finally ^3H-PGD2 was added to the membrane/SPA bead mix to 3.6 nM. 100 μL of the membrane/SPA bead/^3H-PGD2 mix was added to each well of the non-surface binding plates containing the diluted compound or controls. The plates were incubated for 2 hours at room temperature with shaking and then the plates were counted on a Microbeta scintillation counter (Perkin Elmer) for 1 min per well.
IC50 values were determined from the experimental results by nonlinear regression using Prism 4.0 software. The IC50 values were then used in conjunction with the Kd for hCRTH2 and the ^3H-PGD2 concentration used in the experiment to calculate the Ki for each compound.

As to `CCCc1nc2cc(N(Cc3ccc(F)cc3)S(=O)(=O)CC)ccc2n1CC(=O)O` [Example 29, {5-[Ethanesulfonyl-(4-fluoro-benzyl)-amino]-2-propyl-benzoimidazol-1-yl}-acetic acid], the Ki was less than 1000 nM.

For `CCCc1nc2cc(N(Cc3ccc(F)cc3)C(=O)COC)ccc2n1CC(=O)O` [Example 30, {5-[(4-Fluoro-benzyl)-(2-methoxy-acetyl)-amino]-2-propyl-benzoimidazol-1-yl}-acetic acid], the Ki was less than 1000 nM.

Turning to `CCCc1nc2cc(N(Cc3ccc(F)cc3)C(=O)C3CC3)ccc2n1CC(=O)O` [Example 31, {5-[Cyclopropanecarbonyl-(4-fluoro-benzyl)-amino]-2-propyl-benzoimidazol-1-yl}-acetic acid], the Ki was less than 1000 nM.

Take `CCCc1nc2cc(N(Cc3ccc(F)cc3)C(=O)c3ccccc3)ccc2n1CC(=O)O` [Example 32, {5-[Benzoyl-(4-fluoro-benzyl)-amino]-2-propyl-benzoimidazol-1-yl}-acetic acid]: the Ki was less than 1000 nM.

For `CCCc1nc2cc(N(Cc3ccc(F)cc3)C(C)=O)ccc2n1CC(=O)O` [Example 33, {5-[Acetyl-(4-fluoro-benzyl)-amino]-2-propyl-benzoimidazol-1-yl}-acetic acid], the Ki is less than 100 nM.

Regarding `CCCc1nc2c(N(Cc3ccccc3)S(=O)(=O)c3cccc(F)c3)cccc2n1CC(=O)O` [Example 34, {4-[Benzyl-(3-fluoro-benzenesulfonyl)-amino]-2-propyl-benzoimidazol-1-yl}-acetic acid], the Ki is less than 1000 nM.

For `CCCc1nc2c(N(CCOC)S(=O)(=O)c3cccc(F)c3)cccc2n1CC(=O)O` [Example 35, {4-[(3-Fluoro-benzenesulfonyl)-(2-methoxy-ethyl)-amino]-2-propyl-benzoimidazol-1-yl}-acetic acid], the Ki is less than 10000 nM.

For `CCCc1nc2c(N(CCC(C)C)S(=O)(=O)c3cccc(F)c3)cccc2n1CC(=O)O` [Example 36, {4-[(3-Fluoro-benzenesulfonyl)-(3-methyl-butyl)-amino]-2-propyl-benzoimidazol-1-yl}-acetic acid], the Ki was less than 1000 nM.

Consider `CCCc1nc2c(N(Cc3ccc(F)cc3)S(=O)(=O)c3cccc(F)c3)cccc2n1CC(=O)O` [Example 37, {4-[(3 -Fluoro-benzenesulfonyl)-(4-fluoro-benzyl)-amino]-2-propyl-benzoimidazol-1-yl}-acetic acid], for which the Ki was less than 1000 nM.

In the case of `CCCc1nc2c(N(C(C)C)S(=O)(=O)c3cccc(F)c3)cccc2n1CC(=O)O` [Example 38, {4-[(3-Fluoro-benzenesulfonyl)-isopropyl-amino]-2-propyl-benzoimidazol-1-yl}-acetic acid], the Ki is less than 10000 nM.

As for `CCCc1nc2c(N(Cc3ccccc3)S(=O)(=O)Cc3ccc(F)cc3)cccc2n1CC(=O)O` [Example 39, {4-[Benzyl-(4-fluoro-phenylmethanesulfonyl)-amino]-2-propyl-benzoimidazol-1-yl}-acetic acid], the Ki was less than 1000 nM.

Regarding `CCCc1nc2cccc(N(Cc3ccccc3)S(=O)(=O)c3ccc(F)cc3)c2n1CC(=O)O` [Example 40, {7-[Benzyl-(4-fluoro-benzenesulfonyl)-amino]-2-propyl-benzoimidazol-1-yl}-acetic acid], the Ki was more than 10000 nM.

As to `CCCc1nc2cc(N(Cc3ccccc3Cl)S(=O)(=O)c3ccc(F)cc3)ccc2n1CC(=O)O` [Example 41, {5-[(2-Chloro-benzyl)-(4-fluoro-benzenesulfonyl)-amino]-2-propyl-benzoimidazol-1-yl}-acetic acid], the Ki is less than 100 nM.

Regarding `CCCc1nc2cc(N(Cc3cccc(Cl)c3)S(=O)(=O)c3ccc(F)cc3)ccc2n1CC(=O)O` [Example 42, {5-[(3 -Chloro-benzyl)-(4-fluoro-benzenesulfonyl)-amino]-2-propyl-benzoimidazol-1-yl}-acetic acid], the Ki was less than 100 nM.

Regarding `CCCc1nc2cc(N(Cc3cccc(Cl)c3Cl)S(=O)(=O)c3ccc(F)cc3)ccc2n1CC(=O)O` [Example 44, {5-[(2,3-Dichloro-benzyl)-(4-fluoro-benzenesulfonyl)-amino]-2-propyl-benzoimidazol-1-yl}-acetic acid], the Ki is less than 100 nM.

Regarding `CCCc1nc2cc(N(Cc3ccccc3C(F)(F)F)S(=O)(=O)c3ccc(F)cc3)ccc2n1CC(=O)O` [Example 45, {5-[(2-Trifluoromethyl-benzyl)-(4-fluoro-benzenesulfonyl)-amino]-2-propyl-benzoimidazol-1-yl}-acetic acid], the Ki is less than 1000 nM.

On to `CCCc1nc2cc(N(CCCc3ccccc3)S(=O)(=O)c3ccc(F)cc3)ccc2n1CC(=O)O` [Example 48, {5-[(4-Fluoro-benzenesulfonyl)-(3-phenyl-propyl)-amino]-2-propyl-benzoimidazol-1-yl}-acetic acid], for which the Ki is less than 100 nM.

`CCCc1nc2cc(N(Cc3cccc(F)c3)S(=O)(=O)c3ccc(F)cc3)ccc2n1CC(=O)O` [Example 50, {5-[(4-Fluoro-benzenesulfonyl)-(3-fluoro-benzyl)-amino]-2-propyl-benzoimidazol-1-yl}-acetic acid]: the Ki was less than 1000 nM.

As for `CCCc1nc2cc(N(Cc3cccc(C(F)(F)F)c3)S(=O)(=O)c3ccc(F)cc3)ccc2n1CC(=O)O` [Example 51, {5-[(4-Fluoro-benzenesulfonyl)-(3-trifluoromethyl-benzyl)-amino]-2-propyl-benzoimidazol-1-yl}-acetic acid], the Ki is less than 1000 nM.

As to `CCCc1nc2cc(N(Cc3ccc(C#N)cc3)S(=O)(=O)c3ccc(F)cc3)ccc2n1CC(=O)O` [Example 52, {5-[(4-Cyano-benzyl)-(4-fluoro-benzenesulfonyl)-amino]-2-propyl-benzoimidazol-1-yl}-acetic acid], the Ki was less than 100 nM.

As for `CCCc1nc2cc(N(Cc3ccc(OC(F)(F)F)cc3)S(=O)(=O)c3ccc(F)cc3)ccc2n1CC(=O)O` [Example 53, {5-[(4-Trifluoromethoxy-benzyl)-(4-fluoro-benzenesulfonyl)-amino]-2-propyl-benzoimidazol-1-yl}-acetic acid], the Ki was less than 100 nM.

`CCCc1nc2cc(N(Cc3ccccc3C#N)S(=O)(=O)c3ccc(F)cc3)ccc2n1CC(=O)O` [Example 54, {5-[(2-Cyano-benzyl)-(4-fluoro-benzenesulfonyl)-amino]-2-propyl-benzoimidazol-1-yl}-acetic acid]: the Ki is less than 1000 nM.

In the case of `CCCc1nc2cc(N(Cc3nc4ccccc4s3)S(=O)(=O)c3ccc(F)cc3)ccc2n1CC(=O)O` [Example 55, {5-[Benzothiazol-2-ylmethyl-(4-fluoro-benzenesulfonyl)-amino]-2-propyl-benzoimidazol-1-yl}-acetic acid], the Ki is less than 100 nM.

Turning to `C/C=C/CN(c1ccc2c(c1)nc(CCC)n2CC(=O)O)S(=O)(=O)c1ccc(F)cc1` [Example 56, {5-[But-2-enyl-(4-fluoro-benzenesulfonyl)-amino]-2-propyl-benzoimidazol-1-yl}-acetic acid], the Ki was less than 100 nM.

Regarding `CCCc1nc2cc(N(Cc3ccccc3)C(C)=O)ccc2n1CC(=O)O` [Example 57, [5-(Acetyl-benzyl-amino)-2-propyl-benzoimidazol-1-yl]-acetic acid], the Ki was less than 10000 nM.

Turning to `CCCc1nc2cc(N(Cc3ccccc3)C(=O)C(C)C)ccc2n1CC(=O)O` [Example 58, [5-(Benzyl-isobutyryl-amino)-2-propyl-benzoimidazol-1-yl]-acetic acid], the Ki was more than 10000 nM.

As a reminder, the Ki is the equilibrium dissociation constant of an inhibitor or competing ligand from its target.
